Data: patent US9382290B2, “Aptamer-modified polymeric materials for the binding of factors in a wound environment” (KCI LICENSING, INC., priority 2011, dated 2016)
Where no end group is shown, it is not given here. [ ]: non-standard residue; d: D form. AEEA = NCCOCCOCC(=O)O

Columns and labels:
VEGF [1] = test: VEGF capture by P16-linker-ROCF construct, elution and ELISA; type: binding
Method: C1 was ROCF alone; C2 was ROCF+EMCS−P16; C3 was ROCF−EMCS+P16; C4 was silanated ROCF alone; C5=silanated ROCF+EMCS−P16; C6 was silanated ROCF−EMCS+P16; 51 was 50× Sulfo-EMCS+P16; and S2 was 100× Sulfo-EMCS+P16. W=Final subsequent PBS wash. E1=50 mM Tris, 80 mM NaCl, 250 mM Imidazole, 45 min. […] E1 (right) indicates the amount of VEGF dislodged from the foam and peptide with an […] after the last wash. […] S2 bound 584 pg/mL, whereas C4 bound 321 pg/m. S2 has the highest concentration of EMCS and therefore the most covalently bound P16. […] Data are given as mean±standard deviation.
P16 was conjugated to ROCF, incubated with VEGF, washed stringently, then eluted with an […]. In this experiment, the test group (P16-linker-foam) bound 584 pg/mL, whereas the greatest negative control bound 321 pg/mL. Non-specific binding was expected due to the hydrophobic nature of both the ROCF and the target protein VEGF.
Target sequence in this assay (P15692 207-320 limits assumed): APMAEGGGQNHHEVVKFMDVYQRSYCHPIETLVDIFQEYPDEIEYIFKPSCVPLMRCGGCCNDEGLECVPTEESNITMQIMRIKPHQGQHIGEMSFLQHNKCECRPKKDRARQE

VEGF [2] = test: Binding of P-16 to VEGF (statement)
Target sequence in this assay (P15692 207-311 limits assumed): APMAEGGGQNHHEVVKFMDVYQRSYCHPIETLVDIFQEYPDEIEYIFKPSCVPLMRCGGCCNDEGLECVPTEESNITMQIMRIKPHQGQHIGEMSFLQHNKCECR

PDGF = test: Binding of P-16 to PDGF (statement)
[3] = biological target: granulocyte macrophage colony stimulating factor (GM-CSF) (Homo sapiens, UniProt P04141); test: GM-CSF capture by P22-modified silylated 30 PHR chitosan foam, elution and ELISA; type: binding; conditions: 333 ng/mL GM-CSF incubated 24 hr; unbound washed off; eluted with imidazole-based buffer E1; 30 PHR chitosan foam silylated with compound 602
Chain of granulocyte macrophage colony stimulating factor (GM-CSF) (P04141 18-144, species assumed): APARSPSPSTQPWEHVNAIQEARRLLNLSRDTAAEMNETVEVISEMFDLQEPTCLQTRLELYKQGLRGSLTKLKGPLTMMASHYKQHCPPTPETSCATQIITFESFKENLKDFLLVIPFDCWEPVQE
Method: FIG. 8: Silylated with compound 602, 30 PHR Chitosan/P-22 captures more granulocyte macrophage colony stimulating factor (GM-CSF). Briefly, 333 ng/mL of GM-CSF was incubated with the samples for 24 hr. The unbound protein was washed off then the samples were eluted with an imidazole-based buffer, E1. The samples were cleaned up via buffer exchange with PBS and quantified by ELISA.
The test procedure used included the steps listed below: All buffers and reagents were prepared in advance, except the Sulfo-EMCS, which was reconstituted immediately before use. See Sulfo-EMCS Product Instructions (Thermo Scientific-Pierce), which is incorporated by reference herein in its entirety. • 1.1. BupH Borate Buffer: Two packs BupH Borate Buffer powderwere added to 1 L DI H2O as per manufacturer's instructions. • 1.2. Conjugation Buffer, BupH Borate Buffer/5 mM EDTA was prepared by dissolving 146 mg EDTA in 500 mL BupH Borate Buffer. • 1.3. Sulfo-EMCS, allowed to warm to RT, was reconstituted immediately before performing the Sulfo-EMCS addition step. […]
• 1.8. • 1.8.1. […] Use the coupons immediately for growth factor binding or transfer the moist coupons to a capped vial and store them at 4° C. until ready for use for no longer than. […] The unbound proteins were washed off then the samples were eluted with an imidazole-based buffer, E1 before a buffer exchange with PBS and quantification via ELISA.

GM-CSF = GM-CSF (Homo sapiens, UniProt P04141); test: GM-CSF capture by P22-linker-ROCF construct, elution and ELISA; type: binding; conditions: upon elution; sample with the most capture peptide vs ROCF alone
Chain of GM-CSF (P04141 18-144, species assumed): as above
Method: FIG. 11 provides elution results for the P22/GM-CSF experiment. P22 was obtained from the Bachem Americas Inc. 2010 peptide catalog. P22 is a GM-CSF antagonist that binds GM-CSF in an inhibitory manner. Briefly, 330 nmol P22 was conjugated to a polyurethane-based ROCF via Sulfo-EMCS chemistry. The P22-linker-foam construct was incubated with 1 μg GM-CSF overnight, washed five times, and subjected to stringent elutions. […] Upon elution, the sample with the most capture peptide, S3, outperformed ROCF alone by 49%. […] Samples S1-S3 all contained peptide-linker-foam with Sulfo-EMCS concentration increasing from S1 to S3 (S1=10× Sulfo-EMCS+P22; S2=25× Sulfo-EMCS+P22 and S3=50× Sulfo-EMCS+P22), C1 was ROCF alone, C2 was Silanated ROCF+EMCS−P22 and C3 was Silanated ROCF−EMCS+P22. There were no positive controls available for this experiment, as no technology has yet been proven to covalently conjugate peptides to polyurethane. However, positive controls were later developed for subsequent experiments based on experimental results. Data are given as mean±standard deviation.
With the -Sil bond, a “capture peptide” was next conjugated to the amino-functionalized ROCF. To do so, Sulfo-EMCS chemistry developed in Example 2 was used to conjugate a commercially available GM-CSF antagonist capture peptide, P22, to ROCF. […] The eluted GM-CSF was quantified via ELISA (FIG. 11). […]

binding to VEGF (VEGF [2]) | binding to PDGF (PDGF) | GM-CSF captured (eluted, quantified by ELISA) [3] [pg/mL] | more GM-CSF captured than ROCF alone (GM-CSF) [%] | Substance | VEGF bound (elution E1, ELISA) (VEGF [1]; P16 conjugated to silanated ROCF via Sulfo-EMCS, incubated with VEGF, washed, E1 = 50 mM Tris, 80 mM NaCl, 250 mM Imidazole, 45 min) [pg/mL] | more VEGF bound than greatest negative control (silanated ROCF, C4) (VEGF [1]; elution data) [%]
shown to bind | shown to bind |  |  | GHQGQHIGQMS-AEEAc-Cys-NH2 (GHQGQHIGQMS[AEEA]C-NH2; N-terminus assumed; SMILES CC[C@H](C)[C@H](NC(=O)[C@H](Cc1c[nH]cn1)NC(=O)[C@H](CCC(N)=O)NC(=O)CNC(=O)[C@H](CCC(N)=O)NC(=O)[C@H](Cc1c[nH]cn1)NC(=O)CN)C(=O)NCC(=O)N[C@@H](CCC(N)=O)C(=O)N[C@@H](CCSC)C(=O)N[C@@H](CO)C(=O)NCCOCCOCC(=O)N[C@@H](CS)C(N)=O; listed as Homo sapiens) [P16, Anti-VEGF peptide designed de novo] | 584 | 82
 |  | 299 | 49 | NAIQEARRLLNLSRD (listed as Homo sapiens) [P22, Commercially available anti-GM-CSF peptide (Bachem), GM-CSF antagonist] |  | 
